Experimental data from ChEMBL document CHEMBL3039007, “Structure-based identification of OATP1B1/3 inhibitors” (Mol Pharmacol, 2013).

Tests used:
[1] = molecular target: T1, Solute carrier organic anion transporter family member 1B1 (Homo sapiens, UniProt Q9Y6L6); conditions: chinese hamster, cho, 10 µM
T1 sequence (Q9Y6L6 whole entry): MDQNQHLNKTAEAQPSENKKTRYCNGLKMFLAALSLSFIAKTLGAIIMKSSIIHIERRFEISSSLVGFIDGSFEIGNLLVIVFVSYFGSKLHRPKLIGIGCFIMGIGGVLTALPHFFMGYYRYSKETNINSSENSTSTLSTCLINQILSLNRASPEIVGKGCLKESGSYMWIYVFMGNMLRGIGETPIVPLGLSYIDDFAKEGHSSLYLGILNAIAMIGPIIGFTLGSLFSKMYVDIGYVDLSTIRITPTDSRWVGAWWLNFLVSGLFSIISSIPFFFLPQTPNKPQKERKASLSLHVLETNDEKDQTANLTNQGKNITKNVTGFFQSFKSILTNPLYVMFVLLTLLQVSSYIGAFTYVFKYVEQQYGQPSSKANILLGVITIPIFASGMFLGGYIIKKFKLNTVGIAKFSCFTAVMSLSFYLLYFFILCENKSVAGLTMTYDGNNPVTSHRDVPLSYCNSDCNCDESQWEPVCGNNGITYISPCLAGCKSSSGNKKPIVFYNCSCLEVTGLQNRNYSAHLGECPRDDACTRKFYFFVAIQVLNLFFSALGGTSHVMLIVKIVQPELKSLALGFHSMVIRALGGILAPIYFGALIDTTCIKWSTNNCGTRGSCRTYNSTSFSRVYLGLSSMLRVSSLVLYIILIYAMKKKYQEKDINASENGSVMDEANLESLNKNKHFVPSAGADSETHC

[2] = molecular target: T2, Solute carrier organic anion transporter family member 1B3 (Homo sapiens, UniProt Q9NPD5); conditions: chinese hamster, cho, 10 µM
T2 sequence (Q9NPD5 whole entry): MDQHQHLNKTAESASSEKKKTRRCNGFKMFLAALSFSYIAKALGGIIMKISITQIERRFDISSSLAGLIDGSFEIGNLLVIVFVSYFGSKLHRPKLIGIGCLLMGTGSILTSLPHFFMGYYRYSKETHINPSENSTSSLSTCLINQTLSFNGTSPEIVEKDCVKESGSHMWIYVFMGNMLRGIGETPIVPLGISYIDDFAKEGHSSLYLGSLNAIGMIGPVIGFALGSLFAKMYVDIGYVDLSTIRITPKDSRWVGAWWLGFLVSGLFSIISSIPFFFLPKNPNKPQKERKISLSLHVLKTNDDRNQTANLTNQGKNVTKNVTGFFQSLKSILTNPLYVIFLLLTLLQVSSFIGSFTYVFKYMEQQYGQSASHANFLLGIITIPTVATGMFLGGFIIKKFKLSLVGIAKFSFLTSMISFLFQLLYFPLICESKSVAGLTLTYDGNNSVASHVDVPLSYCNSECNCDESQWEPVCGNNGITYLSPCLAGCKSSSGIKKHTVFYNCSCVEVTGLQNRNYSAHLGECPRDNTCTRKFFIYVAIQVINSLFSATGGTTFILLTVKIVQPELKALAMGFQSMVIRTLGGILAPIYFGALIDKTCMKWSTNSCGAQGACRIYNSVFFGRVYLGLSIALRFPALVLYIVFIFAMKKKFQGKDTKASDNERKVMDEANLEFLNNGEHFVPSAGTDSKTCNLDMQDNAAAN

Row | SMILES | residual activity [1] [%] | residual activity [2] [%]
1 | O=C1C[C@@H]2OCC=C3CN4CC[C@]56c7ccccc7N1[C@H]5[C@H]2[C@H]3C[C@H]46 [STRYCHNINE] | 79.74 | 93.97
2 | CC(=O)CC(=O)CCC(=O)O [SUCCINYLACETONE] | 92.01 | 94.95
3 | Clc1ccc(CSC(Cn2ccnc2)c2ccc(Cl)cc2Cl)cc1.O=[N+]([O-])O (configuration not stated) [SULCONAZOLE NITRATE] | 116.2 | 107.6
4 | Nc1ccc(S(=O)(=O)NC(=O)c2ccccc2)cc1 [SULFABENZAMIDE] | 84.77 | 94.35
5 | Nc1ccc(S(=O)(=O)Nc2ccc(Cl)nn2)cc1 [SULFACHLORPYRIDAZINE] | 134.9 | 95.19
6 | Nc1ccc(S(=O)(=O)Nc2ncccn2)cc1 [SULFADIAZINE] | 90.81 | 74.08
7 | COc1cc(NS(=O)(=O)c2ccc(N)cc2)nc(OC)n1 [SULFADIMETHOXINE] | 118.7 | 103
8 | [H]/N=C(/N)NS(=O)(=O)c1ccc(N)cc1 [SULFAGUANIDINE] | 119.2 | 108
9 | Cc1ccnc(NS(=O)(=O)c2ccc(N)cc2)n1 [SULFAMERAZINE] | 84.88 | 101.2
10 | Cc1cc(C)nc(NS(=O)(=O)c2ccc(N)cc2)n1 [SULFAMETHAZINE] | 90.46 | 97.37
11 | Cc1nnc(NS(=O)(=O)c2ccc(N)cc2)s1 [SULFAMETHIZOLE] | 89.01 | 100.6
12 | Cc1cc(NS(=O)(=O)c2ccc(N)cc2)no1 [SULFAMETHOXAZOLE] | 104.3 | 94.47
13 | COc1cc(NS(=O)(=O)c2ccc(N)cc2)ncn1 [SULFAMONOMETHOXINE] | 109.8 | 105.3
14 | Nc1ccc(S(N)(=O)=O)cc1 [SULFANILAMIDE] | 113.8 | 155.8
15 | Nc1ccc(S(=O)(=O)Nc2ccnn2-c2ccccc2)cc1 [SULFAPHENAZOLE] | 104.5 | 98.59
16 | Nc1ccc(S(=O)(=O)Nc2ccccn2)cc1 [SULFAPYRIDINE] | 73.46 | 105.2
17 | Nc1ccc(S(=O)(=O)[N-]c2cnc3ccccc3n2)cc1.[Na+] [SULFAQUINOXALINE SODIUM] | 73.75 | 102.9
18 | O=C(O)c1cc(/N=N/c2ccc(S(=O)(=O)Nc3ccccn3)cc2)ccc1O [SULFASALAZINE] | 126.2 | 72.91
19 | Nc1ccc(S(=O)(=O)Nc2nccs2)cc1 [SULFATHIAZOLE] | 89.12 | 85.21
20 | O=C1C(CC[S+]([O-])c2ccccc2)C(=O)N(c2ccccc2)N1c1ccccc1 (configuration not stated) [SULFINPYRAZONE] | 55.19 | 43.93
21 | Cc1noc(NS(=O)(=O)c2ccc(N)cc2)c1C [SULFISOXAZOLE] | 78.99 | 90.16
22 | COc1cc([S+](C)[O-])ccc1-c1nc2ncccc2[nH]1 (configuration not stated) [SULMAZOLE] | 107.4 | 116.5
23 | CCCCCCCCNC(C)C(O)c1ccc(SC(C)C)cc1 (configuration not stated) [SULOCTIDIL] | 143.8 | 108.7

Row | SMILES | residual activity [1] [%] | residual activity [2] [%]
24 | CCN1CCCC1CNC(=O)c1cc(S(N)(=O)=O)ccc1OC (configuration not stated) [SULPIRIDE] | 121.8 | 106.2
25 | COC(=O)C(C)c1ccc(C(=O)c2cccs2)cc1 (configuration not stated) [SUPROFEN METHYL ESTER] | 93.7 | 95.34
26 | CC(C(=O)O)c1ccc(C(=O)c2cccs2)cc1 (configuration not stated) [SUPROFEN] | 108.5 | 96.21
27 | C/C=C(\C)C(=O)O[C@@H]1[C@@H]2C=C3[C@@H]4CC(=O)O[C@@H](c5ccoc5)[C@]4(C)CC[C@@H]3[C@@](C)(C2=O)[C@@H]([C@@H](O)C(=O)OC)C1(C)C [SWIETENINE] | 14.03 | 69.9
28 | COC(=O)[C@H](O)[C@H]1C(C)(C)[C@H](OC(C)=O)[C@@H]2CC3=C4CC(=O)O[C@@H](c5ccoc5)[C@]4(C)CC[C@@H]3[C@@]1(C)C2=O [SWIETENOLIDE-3-ACETATE] | 54.05 | 66.25
29 | O=C(O)c1cc(O)c2c(c1)[C@H]([C@H]1c3cc(C(=O)O)cc(O)c3C(=O)c3c(O[C@@H]4O[C@H](CO)[C@@H](O)[C@H](O)[C@H]4O)cccc31)c1cccc(O[C@@H]3O[C@H](CO)[C@@H](O)[C@H](O)[C@H]3O)c1C2=O [Sennoside A] | 122.9 | 111.1
30 | CNC(=O)N(C)c1nnc(C(C)(C)C)s1 [TEBUTHIURON] | 87.52 | 111.4
31 | CCCCCNC(=N)N/N=C/c1c[nH]c2ccc(OC)cc12.O=C(O)/C=C\C(=O)O [TEGASEROD MALEATE] | 73.16 | 112.9
32 | Cc1scc2c1N(C(=O)CN1CCN(C)CC1)c1ccccc1NC2=O.Cl [TELENZEPINE HYDROCHLORIDE] | 99.27 | 93.24
33 | COP(=S)(OC)Oc1ccc(Sc2ccc(OP(=S)(OC)OC)cc2)cc1 [TEMEFOS] | 144.3 | 89.27
34 | COc1cc([C@@H]2c3cc4c(cc3[C@@H](O[C@@H]3O[C@@H]5CO[C@@H](c6cccs6)O[C@H]5[C@H](O)[C@H]3O)[C@H]3COC(=O)[C@H]23)OCO4)cc(OC)c1O [TENIPOSIDE] | 25.44 | 32.58
35 | CN1C(C(=O)Nc2ccccn2)=C(O)c2sccc2S1(=O)=O [TENOXICAM] | 78.82 | 78.1
36 | CCC(=O)O[C@H]1CC[C@H]2[C@@H]3CCC4=CC(=O)CC[C@]4(C)[C@H]3CC[C@]12C [TESTOSTERONE PROPIONATE] | 121 | 133.5
37 | CCCCNc1ccc(C(=O)OCCN(C)C)cc1.Cl [TETRACAINE HYDROCHLORIDE] | 61.91 | 88.3
38 | CN(C)[C@@H]1C(O)=C(C(N)=O)C(=O)[C@@]2(O)C(O)=C3C(=O)c4c(O)cccc4[C@@](C)(O)[C@H]3C[C@@H]12.Cl [TETRACYCLINE HYDROCHLORIDE] | 118.1 | 97.72
39 | O=C(O)Cc1cc(I)c(Oc2cc(I)c(O)c(I)c2)c(I)c1 [TETRAC] | 33.41 | 71.42
40 | C[C@]12CC[C@@H](O)C[C@H]1CC[C@@H]1[C@@H]2C(=O)C[C@@]2(C)[C@H]1CC[C@]2(O)C(=O)CO [TETRAHYDROCORTISONE] | 101.6 | 99.93
41 | COc1cc2c(cc1OC)[C@@H]1Cc3ccc(OC)c(OC)c3CN1CC2 [TETRAHYDROPALMATINE] | 186.7 | 106.9
42 | COc1ccc2c(c1)OC[C@@H](Cc1ccc(OC)c(OC)c1)[C@H]2O [TETRAHYDROSAPPANONE A TRIMETHYL ETHER] | 93.05 | 134.3
43 | O=C1C(O)=C(O)C(=O)C(O)=C1O [TETROQUINONE] | 121.2 | 83.15
44 | O=C1CCC(N2C(=O)c3ccccc3C2=O)C(=O)N1 (configuration not stated) [THALIDOMIDE] | 82.94 | 101
45 | O=c1c(O)cccc2c([C@H]3Oc4cc(O)cc(O)c4C[C@H]3O)cc(O)c(O)c12 [THEAFLAVANIN] | 60 | 85.59
46 | O=C(O[C@@H]1Cc2c(O)cc(O)cc2O[C@@H]1c1cc(O)c(=O)c2c(O)c(O)cc([C@H]3Oc4cc(O)cc(O)c4C[C@H]3O)c2c1)c1cc(O)c(O)c(O)c1 [THEAFLAVIN MONOGALLATES] | 89.76 | 103.8
